From paper PMC5303821, “Major sulfonate transporter Soa1 in Saccharomyces cerevisiae and considerable substrate diversity in its fungal family” (Nature Communications, 2017)

How the values were obtained:
Soa1 (YIL166C) = target: T1, Soa1 (YIL166C) (Saccharomyces cerevisiae, UniProt P40445); test: growth rate of sul1 sul2 deletion strain (Monod fit), not direct uptake; type: cell-based; conditions: cell growth constant, not transport Km
T1 construct: full-length, native SOA1 locus, in sulfur-starved S. cerevisiae cells
T1 sequence (P40445 1-542): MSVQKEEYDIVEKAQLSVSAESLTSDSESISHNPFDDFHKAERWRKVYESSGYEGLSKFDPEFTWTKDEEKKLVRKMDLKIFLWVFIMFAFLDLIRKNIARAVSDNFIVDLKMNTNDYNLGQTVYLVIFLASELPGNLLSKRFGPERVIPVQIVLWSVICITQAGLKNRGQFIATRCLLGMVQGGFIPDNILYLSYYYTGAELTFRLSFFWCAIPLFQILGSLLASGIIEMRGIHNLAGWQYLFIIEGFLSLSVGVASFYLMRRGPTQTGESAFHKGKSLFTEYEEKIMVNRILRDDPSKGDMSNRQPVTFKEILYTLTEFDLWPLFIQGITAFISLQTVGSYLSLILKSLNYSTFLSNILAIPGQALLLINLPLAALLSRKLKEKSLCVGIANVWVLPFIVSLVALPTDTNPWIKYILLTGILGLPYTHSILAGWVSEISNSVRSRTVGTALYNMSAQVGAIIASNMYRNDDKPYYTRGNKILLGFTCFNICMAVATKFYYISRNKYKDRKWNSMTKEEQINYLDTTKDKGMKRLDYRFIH

[1] = substrate: O=S(=O)(O)O; test: radiolabelled uptake in sulfur-starved cells; type: cell-based, Aspergillus nidulans; conditions: pH 6.5 Bis-Tris, 30 °C, 1 min uptake, labelled compound ([35S]), H+ symport, sul1 sul2 soa1 deletion background

O=S(O)O [sulfite]
Ks (half-velocity constant for growth) (Soa1 (YIL166C); pH 6.5, sulfite as sole sulfur source): 67.4 ± 8.3 µM

O=S(=O)(O)S [thiosulfate]
Ks (half-velocity constant for growth) (Soa1 (YIL166C); pH 6.5, thiosulfate as sole sulfur source): 75.8 ± 6.0 µM

B1: AstA (Aspergillus nidulans) (protein)
chain: MADYKSTNPTVENKDDVAVPEYVIDWTLEEETKAKRKLDLMIMPILTLGFFCLQLDRGNMANAITDNFMEDVGINQDQFNVGQQMLSLGIVLTEIPSNMILYRVGPGKWLTLQLFLFGIVSTFQAFQRGYGAFIATRFLLGITESGFIPGGLWTLSTWYTRDETAKRVMIFYFGNQIGQASAKLLAYGILHMRGVGGQSGWFWLFALMGSFTVFSGFIFGFFLLDSFKNPHSTFLPKMSRFTERELHILQTRVLLDDPMKGKKKRKIGLGAFKRAFTDWRIWVHFLITLSNNGPQRAFDTYAPSIVTSFGFGRLVSNAMAAVGLFLQVPVSFAFSWVSDHYNRRGETVMLGFFCHLLGYIFNRTFTDVNLRGVRYFGVVWTQTFGTFSHPLNIAWLSLTCKDSEQRALAMAGVIMNANIAGIYGAQIFRSDDKPLYRRGFSVALSVLAVGLVLAIVRYVDTMIHRRRKLQAVEDGSEQDTDADHKLT
notes: full-length, codon-optimized synthetic gene in SOA1 locus of S. cerevisiae sul1 sul2 soa1 deletion strain
Km [1]: 7.50 ± 0.53 µM
